Measured values as given in the NIST ThermoML archive (doi:10.1016/j.jct.2012.01.019).
± gives the expanded uncertainty stated by the source.

Experiment: activity coefficient (dimensionless); of the first substance listed, at infinite dilution; xn = mol fraction of the nth substance listed
Conditions: 101 kPa, Liquid, Chromatography, x1 = 0

C=CCCCC [hex-1-ene] + COCC[N+]1(C)CCCCC1.O=S(=O)([N-]S(=O)(=O)C(F)(F)F)C(F)(F)F
activity coefficient (318.15 K): 8.78 ± 0.6 | activity coefficient (328.15 K): 8.38 ± 0.57 | activity coefficient (338.15 K): 8.05 ± 0.55 | activity coefficient (348.15 K): 7.69 ± 0.52 | activity coefficient (358.15 K): 7.45 ± 0.51 | activity coefficient (368.15 K): 7.22 ± 0.49

CCc1ccccc1 [ethylbenzene] + COCC[N+]1(C)CCCCC1.O=S(=O)([N-]S(=O)(=O)C(F)(F)F)C(F)(F)F
activity coefficient (318.15 K): 1.92 ± 0.13 | activity coefficient (328.15 K): 1.93 ± 0.13 | activity coefficient (338.15 K): 1.93 ± 0.13 | activity coefficient (348.15 K): 1.94 ± 0.13 | activity coefficient (358.15 K): 1.94 ± 0.13 | activity coefficient (368.15 K): 1.95 ± 0.13

CCCO [propan-1-ol] + COCC[N+]1(C)CCCCC1.O=S(=O)([N-]S(=O)(=O)C(F)(F)F)C(F)(F)F
activity coefficient (318.15 K): 2.13 ± 0.14 | activity coefficient (328.15 K): 1.93 ± 0.13 | activity coefficient (338.15 K): 1.77 ± 0.12 | activity coefficient (348.15 K): 1.61 ± 0.11 | activity coefficient (358.15 K): 1.5 ± 0.1 | activity coefficient (368.15 K): 1.4 ± 0.09

CCO [ethanol] + COCC[N+]1(C)CCCCC1.O=S(=O)([N-]S(=O)(=O)C(F)(F)F)C(F)(F)F
activity coefficient (318.15 K): 1.73 ± 0.12 | activity coefficient (328.15 K): 1.58 ± 0.1 | activity coefficient (338.15 K): 1.45 ± 0.1 | activity coefficient (348.15 K): 1.33 ± 0.09 | activity coefficient (358.15 K): 1.24 ± 0.08 | activity coefficient (368.15 K): 1.16 ± 0.07

c1ccccc1 [benzene] + COCC[N+]1(C)CCCCC1.O=S(=O)([N-]S(=O)(=O)C(F)(F)F)C(F)(F)F
activity coefficient (318.15 K): 0.912 ± 0.058 | activity coefficient (328.15 K): 0.922 ± 0.058 | activity coefficient (338.15 K): 0.934 ± 0.059 | activity coefficient (348.15 K): 0.943 ± 0.059 | activity coefficient (358.15 K): 0.951 ± 0.06 | activity coefficient (368.15 K): 0.961 ± 0.06

CCCC=O [butanal] + COCC[N+]1(C)CCCCC1.O=S(=O)([N-]S(=O)(=O)C(F)(F)F)C(F)(F)F
activity coefficient (318.15 K): 0.779 ± 0.051 | activity coefficient (328.15 K): 0.791 ± 0.051 | activity coefficient (338.15 K): 0.805 ± 0.052 | activity coefficient (348.15 K): 0.817 ± 0.053 | activity coefficient (358.15 K): 0.828 ± 0.053 | activity coefficient (368.15 K): 0.84 ± 0.054

C1CCCC1 [cyclopentane] + COCC[N+]1(C)CCCCC1.O=S(=O)([N-]S(=O)(=O)C(F)(F)F)C(F)(F)F
activity coefficient (318.15 K): 6.73 ± 0.31 | activity coefficient (328.15 K): 6.42 ± 0.29 | activity coefficient (338.15 K): 6.13 ± 0.28 | activity coefficient (348.15 K): 5.86 ± 0.27 | activity coefficient (358.15 K): 5.63 ± 0.26 | activity coefficient (368.15 K): 5.45 ± 0.25

CC(C)=O [acetone] + COCC[N+]1(C)CCCCC1.O=S(=O)([N-]S(=O)(=O)C(F)(F)F)C(F)(F)F
activity coefficient (318.15 K): 0.462 ± 0.036 | activity coefficient (328.15 K): 0.471 ± 0.037 | activity coefficient (338.15 K): 0.48 ± 0.037 | activity coefficient (348.15 K): 0.49 ± 0.037 | activity coefficient (358.15 K): 0.498 ± 0.038 | activity coefficient (368.15 K): 0.507 ± 0.038

C1CCCCCC1 [cycloheptane] + COCC[N+]1(C)CCCCC1.O=S(=O)([N-]S(=O)(=O)C(F)(F)F)C(F)(F)F
activity coefficient (318.15 K): 13.3 ± 0.6 | activity coefficient (328.15 K): 12.5 ± 0.6 | activity coefficient (338.15 K): 11.7 ± 0.5 | activity coefficient (348.15 K): 10.9 ± 0.5 | activity coefficient (358.15 K): 10.2 ± 0.5 | activity coefficient (368.15 K): 9.64 ± 0.44

Cc1ccccc1 [toluene] + COCC[N+]1(C)CCCCC1.O=S(=O)([N-]S(=O)(=O)C(F)(F)F)C(F)(F)F
activity coefficient (318.15 K): 1.29 ± 0.08 | activity coefficient (328.15 K): 1.3 ± 0.08 | activity coefficient (338.15 K): 1.32 ± 0.09 | activity coefficient (348.15 K): 1.33 ± 0.09 | activity coefficient (358.15 K): 1.34 ± 0.09 | activity coefficient (368.15 K): 1.35 ± 0.09

CCCCCC [hexane] + COCC[N+]1(C)CCCCC1.O=S(=O)([N-]S(=O)(=O)C(F)(F)F)C(F)(F)F
activity coefficient (318.15 K): 16.9 ± 0.8 | activity coefficient (328.15 K): 16 ± 0.7 | activity coefficient (338.15 K): 15.1 ± 0.7 | activity coefficient (348.15 K): 14.2 ± 0.7 | activity coefficient (358.15 K): 13.5 ± 0.6 | activity coefficient (368.15 K): 13 ± 0.6

CCOC(C)(C)C [2-ethoxy-2-methylpropane] + COCC[N+]1(C)CCCCC1.O=S(=O)([N-]S(=O)(=O)C(F)(F)F)C(F)(F)F
activity coefficient (318.15 K): 5.82 ± 0.4 | activity coefficient (328.15 K): 5.71 ± 0.39 | activity coefficient (338.15 K): 5.62 ± 0.38 | activity coefficient (348.15 K): 5.53 ± 0.38 | activity coefficient (358.15 K): 5.44 ± 0.37 | activity coefficient (368.15 K): 5.38 ± 0.37

C=Cc1ccccc1 [styrene] + COCC[N+]1(C)CCCCC1.O=S(=O)([N-]S(=O)(=O)C(F)(F)F)C(F)(F)F
activity coefficient (318.15 K): 1.08 ± 0.07 | activity coefficient (328.15 K): 1.1 ± 0.07 | activity coefficient (338.15 K): 1.13 ± 0.07 | activity coefficient (348.15 K): 1.14 ± 0.07 | activity coefficient (358.15 K): 1.16 ± 0.07 | activity coefficient (368.15 K): 1.19 ± 0.08

C=CCCC [1-pentene] + COCC[N+]1(C)CCCCC1.O=S(=O)([N-]S(=O)(=O)C(F)(F)F)C(F)(F)F
activity coefficient (318.15 K): 6.03 ± 0.41 | activity coefficient (328.15 K): 5.9 ± 0.4 | activity coefficient (338.15 K): 5.73 ± 0.39 | activity coefficient (348.15 K): 5.6 ± 0.38 | activity coefficient (358.15 K): 5.46 ± 0.37 | activity coefficient (368.15 K): 5.36 ± 0.37

CCCCCCC [heptane] + COCC[N+]1(C)CCCCC1.O=S(=O)([N-]S(=O)(=O)C(F)(F)F)C(F)(F)F
activity coefficient (318.15 K): 24.5 ± 1.1 | activity coefficient (328.15 K): 22.9 ± 1.1 | activity coefficient (338.15 K): 21.2 ± 1 | activity coefficient (348.15 K): 19.8 ± 0.9 | activity coefficient (358.15 K): 18.4 ± 0.9 | activity coefficient (368.15 K): 17.5 ± 0.8

CCCC(=O)OC [methyl butanoate] + COCC[N+]1(C)CCCCC1.O=S(=O)([N-]S(=O)(=O)C(F)(F)F)C(F)(F)F
activity coefficient (318.15 K): 1.22 ± 0.08 | activity coefficient (328.15 K): 1.23 ± 0.08 | activity coefficient (338.15 K): 1.24 ± 0.08 | activity coefficient (348.15 K): 1.25 ± 0.08 | activity coefficient (358.15 K): 1.26 ± 0.08 | activity coefficient (368.15 K): 1.27 ± 0.08
